In PubChem BioAssay (NCI):
Several values for one entry are separate records, joined by “and”; a condition that tells them apart may be missing. Equal values may be shown once.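 The compound was tested at five concentrations on cells cultured in 96-well plates, with a 48-hour exposure period. GI50: concentration for 50% inhibition of growth. TGI: total growth inhibition.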

Tests used:
Experiment in all cases: growth of human tumour cells (NCI), 48 h
U251 CNS = test system: U251 CNS
SF-268 CNS = test system: SF-268 CNS
COLO 205 colon = test system: COLO 205 colon
MDA-MB-435 = test system: MDA-MB-435
HOP-92 NSCLC = test system: HOP-92 NSCLC
OVCAR-8 ovarian = test system: OVCAR-8 ovarian
T-47D breast = test system: T-47D breast
HOP-62 NSCLC = test system: HOP-62 NSCLC
CAKI-1 renal = test system: CAKI-1 renal
CCRF-CEM leukemia = test system: CCRF-CEM leukemia

SMILES | TGI (U251 CNS) | TGI (SF-268 CNS) [µM] | GI50 (COLO 205 colon) | TGI (COLO 205 colon) [µM] | GI50 (MDA-MB-435) [µM] | TGI (MDA-MB-435) [µM] | TGI (HOP-92 NSCLC) [µM] | GI50 (OVCAR-8 ovarian) [µM] | TGI (OVCAR-8 ovarian) [µM] | GI50 (T-47D breast) [µM] | TGI (T-47D breast) [µM] | GI50 (HOP-62 NSCLC) | TGI (HOP-62 NSCLC) [µM] | GI50 (CAKI-1 renal) [µM] | TGI (CAKI-1 renal) [µM] | GI50 (U251 CNS) [µM] | GI50 (SF-268 CNS) [µM] | GI50 (HOP-92 NSCLC) [µM] | TGI (CCRF-CEM leukemia) [µM]
COc1cc(/C=C/c2cc(O)c(C/C=C(\C)CC/C=C(\C)CO)c(O)c2)cc2c1O[C@]1(C)CC[C@@H](O)C(C)(C)[C@H]1C2 | 8.3 µM and > 72.6 µM | > 100 | 3.21 µM and 15.6 µM | > 100 | 38.4 | > 79.6 | > 84.6 | > 53.3 | > 82.3 | > 62.4 | > 100 | 7.06 µM and 12.9 µM | > 89 | 9.36 | > 42.9 | – | – | – | –
O=C1N=C(Nc2nc(-c3csc(NC4=NC(=O)/C(=C\c5ccc(Cl)cc5)S4)n3)cs2)S/C1=C/c1ccc(Cl)cc1 | > 50 µM | > 50 | 29.9 µM | > 50 | 12.8 | > 50 | 28.5 | 8.99 | 30.2 | 18.8 | > 50 | 3.29 µM | 18 | 20 | > 50 | 4.83 | 8.29 | 8.61 | –
CCCCC(C(=O)CCC(=O)Nc1ccc(Cl)cc1)C(=O)C(C)C (stereo not drawn) | > 100 µM | > 100 | – | > 100 | – | – | > 100 | – | > 100 | – | – | – | > 100 | – | > 100 | – | – | – | > 100
Nc1ccc(C(=O)Nc2ccccc2N)cc1 | 59.8 µM | > 100 | – | 45.2 | – | > 100 | > 100 | – | > 100 | – | – | – | > 100 | – | > 100 | – | – | – | > 82
Cc1cc(N)cc(C)c1-c1c(Br)cc(N)cc1Br | 17.9 µM | 68.5 | 2.39 µM | 4.88 | 1.78 | 11.2 | 9.32 | 4.41 | 28.6 | 4.11 | 20.3 | – | – | 3.07 | 31.2 | 4.54 | 6.36 | 2.01 | –
Cn1cnc([N+](=O)[O-])c1Sc1nc2ccc([N+](=O)[O-])cc2[nH]1 | > 100 µM | 53.1 | – | 23.4 | – | – | 39.8 | – | 39.2 | – | – | – | > 100 | – | 26.7 | – | – | – | 81.1
CC(C)COC(c1ccc2c(c1)OCO2)C(C)Br (stereo not drawn) | 93.8 µM | 59.7 | – | 49.7 | – | 51.7 | 68.8 | – | > 100 | – | – | – | 77.9 | – | > 100 | – | – | – | –
NC(=O)c1ncn(Cc2ccccc2)c1CNC(N)=S | > 100 µM | > 100 | – | > 100 | – | – | – | – | > 100 | – | – | – | – | – | – | – | – | – | > 100
O=C1CC[C@@H](NC(=O)Cc2ccccc2)C(=O)N1 | > 100 µM | > 100 | – | > 100 | – | – | > 100 | – | > 100 | – | – | – | > 100 | – | > 100 | – | – | – | > 100
Cc1ccc(S(=O)(=O)CC2(Br)CCc3ccccc3C2=O)cc1 (stereo not drawn) | 46.8 µM | 36.5 | – | 43.6 | – | 40.3 | > 100 | – | 64.8 | – | – | – | > 100 | – | 53.4 | – | – | – | –
